Assay results: patent US10294202B2, “Pyrrolidinones as herbicides” (FMC Corporation, priority 2013, dated 2019)

Columns and labels:
Assay in all cases: Test A pre-/postemergence herbicide test
barnyardgrass = type: in vivo, Echinochloa crus-galli; conditions: for Barnyardgrass plant response rating: Preemergence, visual rating on 0 to 100 scale (0 no effect, 100 complete control)
From the text: (§1) Seeds of plant species selected from bamyardgrass (Echinochloa crus-galli), kochia (Kochia scoparia), ragweed (common ragweed, Ambrosia elatior), ryegrass, Italian (Italian ryegrass, Lolium multiflorum), crabgrass, large (large crabgrass Digitaria sanguinalis), giant foxtail (Setaria faberii), morningglory (Ipomoea spp.), pigweed (Amaranthus retroflexus), velvetleaf (Abutilon theophrasti), wheat (Triticum aestivum), and corn (Zea mays) were planted into a blend of loam soil and sand and treated preemergence with a directed soil spray using test chemicals formulated in a non-phytotoxic solvent mixture which included a surfactant. At the same time, plants selected from these crop and weed species and also blackgrass (Alopecurus myosuroides), and galium (catchweed bedstraw, Galium aparine) were planted in pots containing the same blend of loam soil and sand and treated with postemergence applications of test chemicals formulated in the same manner. Plants ranged in height from 2 to 10 cm and were in the one- to two-leaf stage for the postemergence treatment. Treated plants and untreated controls were maintained in a greenhouse for approximately 10 days, after which time all treated plants were compared to untreated controls and visually evaluated for injury. Plant response ratings, summarized in Table A, are based on a 0 to 100 scale where 0 is no effect and 100 is complete control. A dash (-) response means no test result.

crabgrass, large = type: in vivo, Digitaria sanguinalis; conditions: for Crabgrass, Large plant response rating: Preemergence, visual rating on 0 to 100 scale (0 no effect, 100 complete control)
From the text: as §1

giant foxtail = type: in vivo, Setaria faberii; conditions: for Foxtail, Giant plant response rating: Preemergence, visual rating on 0 to 100 scale (0 no effect, 100 complete control)
From the text: as §1

morningglory = type: in vivo, Ipomoea spp.; conditions: for Morningglory plant response rating: Preemergence, visual rating on 0 to 100 scale (0 no effect, 100 complete control)
From the text: as §1

pigweed = type: in vivo, Amaranthus retroflexus; conditions: for Pigweed plant response rating: Preemergence, visual rating on 0 to 100 scale (0 no effect, 100 complete control)
From the text: as §1

velvetleaf = type: in vivo, Abutilon theophrasti; conditions: for Velvetleaf plant response rating: Preemergence, visual rating on 0 to 100 scale (0 no effect, 100 complete control)
From the text: as §1

wheat = type: in vivo, Triticum aestivum; conditions: for Wheat plant response rating: Preemergence, visual rating on 0 to 100 scale (0 no effect, 100 complete control)
From the text: as §1

corn = type: in vivo, Zea mays; conditions: for Corn plant response rating: Preemergence, visual rating on 0 to 100 scale (0 no effect, 100 complete control)
From the text: as §1

[1] = Postemergence, 125 g ai/ha, 0 to 100 scale, 0 no effect, 100 complete control
[2] = Postemergence, 500 g ai/ha, 0 to 100 scale (0 no effect, 100 complete control)
[3] = preemergence, 500 g ai/ha, 0 to 100 scale (0 no effect, 100 complete control)
[4] = preemergence, 500 g ai/ha, 0 to 100 scale

| Compound | Plant response rating, Barnyardgrass (barnyardgrass; [1]) | Plant response rating, Barnyardgrass (barnyardgrass; [2]) | Barnyardgrass plant response rating (barnyardgrass; 125 g ai/ha) | Plant response rating, Barnyardgrass (barnyardgrass; [3]) | Plant response rating, Crabgrass, Large (crabgrass, large; [1]) | Plant response rating, Crabgrass, Large (crabgrass, large; [2]) | Crabgrass, Large plant response rating (crabgrass, large; 125 g ai/ha) | Plant response rating, Crabgrass, Large (crabgrass, large; [4]) | Plant response rating, Foxtail, Giant (giant foxtail; [1]) | Plant response rating, Foxtail, Giant (giant foxtail; [2]) | Foxtail, Giant plant response rating (giant foxtail; 125 g ai/ha) | Plant response rating, Foxtail, Giant (giant foxtail; [4]) | Plant response rating, Morningglory (morningglory; [1]) | Plant response rating, Morningglory (morningglory; [2]) | Morningglory plant response rating (morningglory; 125 g ai/ha) | Plant response rating, Morningglory (morningglory; [4]) | Plant response rating, Pigweed (pigweed; [1]) | Plant response rating, Pigweed (pigweed; [2]) | Pigweed plant response rating (pigweed; 125 g ai/ha) | Plant response rating, Pigweed (pigweed; [4]) | further results |
| --- | --- | --- | --- | --- | --- | --- | --- | --- | --- | --- | --- | --- | --- | --- | --- | --- | --- | --- | --- | --- | --- |
| CC1NC(=O)C(C(=O)Nc2ccccc2C(F)(F)F)C1c1ccc(F)c(F)c1 (mixture of isomers) [Compound 9] | 30 | 50 | 20 | 60 | 40 | 70 | 80 | 90 | 0 | 70 | 70 | 90 | 0 | 0 | 0 | 0 | 0 | 0 | 0 | 0 | Plant response rating, Velvetleaf (velvetleaf; [1]): 0; Plant response rating, Velvetleaf (velvetleaf; [2]): 0; Velvetleaf plant response rating (velvetleaf; 125 g ai/ha): 0; Plant response rating, Velvetleaf (velvetleaf; [4]): 0; Plant response rating, Wheat (wheat; [1]): 0; Plant response rating, Wheat (wheat; [2]): 0; Wheat plant response rating (wheat; 125 g ai/ha): 0; Plant response rating, Wheat (wheat; [4]): 0; Plant response rating, Corn (corn; [1]): 0; Plant response rating, Corn (corn; [2]): 0; Corn plant response rating (corn; 125 g ai/ha): 0; Plant response rating, Corn (corn; [4]): 0 |
| O=C1NCC(c2ccc(F)c(F)c2)C1C(=O)Nc1cccc(C(F)(F)F)c1 (racemic) [Compound 13] | 0 | 30 | 0 | 50 | 0 | 60 | 50 | 80 | 0 | 0 | 0 | 30 | 0 | 0 | 0 | 0 | 0 | 0 | 0 | 0 | Plant response rating, Velvetleaf (velvetleaf; [1]): 0; Plant response rating, Velvetleaf (velvetleaf; [2]): 0; Velvetleaf plant response rating (velvetleaf; 125 g ai/ha): 0; Plant response rating, Velvetleaf (velvetleaf; [4]): 0; Plant response rating, Wheat (wheat; [1]): 0; Plant response rating, Wheat (wheat; [2]): 0; Wheat plant response rating (wheat; 125 g ai/ha): 0; Plant response rating, Wheat (wheat; [4]): 0; Plant response rating, Corn (corn; [1]): 0; Plant response rating, Corn (corn; [2]): 0; Corn plant response rating (corn; 125 g ai/ha): 0; Plant response rating, Corn (corn; [4]): 0 |
| O=C1NCC(c2ccccc2F)C1C(=O)Nc1ccccc1F (racemic) [Compound 85] | 0 | 20 | 0 | 30 | 0 | 50 | 30 | 80 | 0 | 0 | 0 | 50 | 0 | 0 | 0 | 0 | 0 | 0 | 0 | 0 | Plant response rating, Velvetleaf (velvetleaf; [1]): 0; Plant response rating, Velvetleaf (velvetleaf; [2]): 0; Velvetleaf plant response rating (velvetleaf; 125 g ai/ha): 0; Plant response rating, Velvetleaf (velvetleaf; [4]): 0; Plant response rating, Wheat (wheat; [1]): 0; Plant response rating, Wheat (wheat; [2]): 0; Wheat plant response rating (wheat; 125 g ai/ha): 0; Plant response rating, Wheat (wheat; [4]): 0; Plant response rating, Corn (corn; [1]): 0; Plant response rating, Corn (corn; [2]): 0; Corn plant response rating (corn; 125 g ai/ha): 0; Plant response rating, Corn (corn; [4]): 0 |
| O=C1NCC(c2ccccc2Cl)C1C(=O)Nc1ccccc1F (racemic) [Compound 88] | 0 | 40 | 0 | 50 | 0 | 60 | 40 | 80 | 0 | 0 | 0 | 30 | 0 | 0 | 0 | 0 | 0 | 0 | 0 | 30 | Plant response rating, Velvetleaf (velvetleaf; [1]): 0; Plant response rating, Velvetleaf (velvetleaf; [2]): 0; Velvetleaf plant response rating (velvetleaf; 125 g ai/ha): 0; Plant response rating, Velvetleaf (velvetleaf; [4]): 0; Plant response rating, Wheat (wheat; [1]): 0; Plant response rating, Wheat (wheat; [2]): 0; Wheat plant response rating (wheat; 125 g ai/ha): 0; Plant response rating, Wheat (wheat; [4]): 0; Plant response rating, Corn (corn; [1]): 0; Plant response rating, Corn (corn; [2]): 0; Corn plant response rating (corn; 125 g ai/ha): 0; Plant response rating, Corn (corn; [4]): 0 |
| O=C1NCC(c2ccc(Cl)cc2Cl)C1C(=O)Nc1ccccc1F (racemic) [Compound 91] | 0 | 20 | 0 | 20 | 30 | 50 | 40 | 60 | 0 | 20 | 0 | 40 | 0 | 0 | 0 | 0 | 0 | 0 | 0 | 0 | Plant response rating, Velvetleaf (velvetleaf; [1]): 0; Plant response rating, Velvetleaf (velvetleaf; [2]): 0; Velvetleaf plant response rating (velvetleaf; 125 g ai/ha): 0; Plant response rating, Velvetleaf (velvetleaf; [4]): 0; Plant response rating, Wheat (wheat; [1]): 0; Plant response rating, Wheat (wheat; [2]): 0; Wheat plant response rating (wheat; 125 g ai/ha): 0; Plant response rating, Wheat (wheat; [4]): 0; Plant response rating, Corn (corn; [1]): 0; Plant response rating, Corn (corn; [2]): 0; Corn plant response rating (corn; 125 g ai/ha): 0; Plant response rating, Corn (corn; [4]): 0 |
